Test system: 616215-338-R-J1-PDC complex spheroids, viability % test/control
Assay: Anticancer human tumor 616215-338-R-J1-PDC patient-derived colon adenocarcinoma cell line growth inhibition [CLK]
Conditions: for IC50: curve of first compound; for viability, T/C: stronger effect = lower value; active = viability on the fitted dose curve at most 10% of control; inactive = the rest
Source text: A high-throughput screen of multi-cell type tumor spheroids was designed to identify active combinations of […] and targeted small molecules. Complex spheroids include a stromal component modeled by human endothelial cells (HUVEC) and fibroblasts modeled by human mesenchymal stem cells (MSCs). The concentration ranges selected for each drug and investigational agent were based upon clinically achievable concentrations if the clinical Cmax of the agent was known.
Compounds. The drugs and investigational agents: cirtuvivint (SM08502; NSC835563), CC-671 (NSC850746), vemurafenib (NSC761431), tapotoclax (NSC804041), sotorasib (NSC818433), adagrasib (NSC831453), MRTX-1133 (NSC836407), BAY2416964 (NSC825713), copanlisib (NSC816437), inavolisib (NSC800729), abemaciclib (NSC768073), osimertinib (NSC779217), entinostat (NSC756642), eltanexor (KPT-8602, NSC794443), venetoclax (NSC766270), ceralasertib (NSC777638), bortezomib (NSC756655), olaparib (NSC753686), talazoparib (NSC767125), alisertib (NSC759677), peposertib (NSC802822), gemcitabine (NSC613327), 5-fluorouracil (NSC19893), SN-38 (NSC673596), oxaliplatin (NSC266046), paclitaxel (NSC125973), and doxorubicin (NSC123127), were obtained from the National Cancer Institute (NCI) Developmental Therapeutics Program Chemical Repository. The FDA-approved anticancer drug set is available from the Developmental Therapeutics Program at https://dtp.cancer.gov/organization/dscb/obtaining/available plates.htm. […] The stock solutions were prepared in dimethyl sulfoxide (DMSO, Sigma-Aldrich, St. Louis, MO, cat. D2650), except for the platinum complexes which were prepared in saline (Quality Biological, Gaithersburg, MD, cat. 114-055-101), at 800-fold the tested concentration and stored at -70 degrees C prior to their use. All drugs and investigational agents were tested over a range starting from a high concentration at or near the clinical Cmax and decreasing in half-log increments. If the clinical Cmax for an agent had not been determined, the highest concentration tested was 10 microM.
Cell Culture. All cells were maintained in an incubator at 37 degrees C and 5% CO2 with 95% humidity. The PDC lines were cultured according to standard operating procedures established by the NCI PDMR. Briefly, all PDCs were thawed and cultured in Matrigel-coated flasks prepared with a working solution of 1X Ham's F-12 nutrient mix, without supplementation (Invitrogen, Waltham, MA, cat. 11765054), 100 U/mL penicillin-streptomycin (Invitrogen, cat. 15140122), and 2.5% Matrigel (Corning Inc., Corning, NY, cat. 354248) for the first three passages. The 947758-054-R-J2-PDC line was cultured in 6B/Colon 1A media, which includes advanced DMEM/F-12 (Thermo Fisher Scientific, cat. 12634028), 10 mM HEPES (Thermo Fisher Scientific, cat. 15630080), 1X GlutaMAX supplement (Thermo Fisher Scientific, cat. 35050061), 0.1 mg/mL primocin (InvivoGen, cat. ant-pm-2), 10% defined fetal bovine serum, heat inactivated (HyClone Laboratories Inc., cat. SH30070.03HI), 1.25 mM N-Acetyl-L-cysteine (Sigma-Aldrich, cat. A9165), 10 mM nicotinamide (Sigma-Aldrich, cat. N0636), 1X B-27 supplement (Thermo Fisher Scientific, cat. 17504044), 1X N-2 supplement (Thermo Fisher Scientific, cat. 17502048), and 10 microM Y-27632 dihydrochloride (Tocris Bioscience, cat. 1254). The 876862-298-R-J1-PDC was cultured in 6E media, which includes all 6B/Colon 1A media components plus 50% L-WRN conditioned media (ATCC, cat. CRL-3276), 50 ng/mL recombinant human EGF recombinant protein (hEGF; Thermo Fisher Scientific, cat. PHG0311), 10 ng/mL recombinant human fibroblast growth factor 10 (hGFG-10; PeproTech, cat. 100-26), 1 ng/mL recombinant human fibroblast growth factor 2 (hFGF-2; PeproTech, cat. 100-18B), and 1 µM prostaglandin E2 (PGE2; Tocris, cat. 2296). The 227483-062-R1-J1-PDC line was cultured in Panc media, containing all 6E components except hFGF-2, with the addition of 500 nM SB-431542 (Selleckchem, cat. S1067) and 10 nM gastrin (Tocris, cat. 3006). […]

[1] = second compound 0.0316 µM, first compound 0.0316 µM
[2] = second compound 0.0316 µM, first compound 0.1 µM
[3] = second compound 0.0316 µM, first compound 0.316 µM
[4] = second compound 0.0316 µM, first compound 1 µM
[5] = second compound 0.0316 µM, first compound 3.16 µM
[6] = second compound 0.0316 µM, first compound 10 µM
[7] = second compound 0.1 µM, first compound 0.0316 µM
[8] = second compound 0.1 µM, first compound 0.1 µM
[9] = second compound 0.1 µM, first compound 0.316 µM
[10] = second compound 0.1 µM, first compound 1 µM
[11] = second compound 0.1 µM, first compound 3.16 µM
[12] = second compound 0.1 µM, first compound 10 µM
[13] = second compound 0.316 µM, first compound 0.0316 µM
[14] = second compound 0.316 µM, first compound 0.1 µM
[15] = second compound 0.316 µM, first compound 0.316 µM
[16] = second compound 0.316 µM, first compound 1 µM
[17] = second compound 0.316 µM, first compound 3.16 µM
[18] = second compound 0.316 µM, first compound 10 µM
[19] = second compound 1 µM, first compound 0.0316 µM
[20] = second compound 1 µM, first compound 0.1 µM
[21] = second compound 1 µM, first compound 0.316 µM
[22] = second compound 1 µM, first compound 1 µM
[23] = second compound 1 µM, first compound 3.16 µM
[24] = second compound 1 µM, first compound 10 µM
[25] = second compound 3.16 µM, first compound 0.0316 µM
[26] = second compound 3.16 µM, first compound 0.1 µM
[27] = second compound 3.16 µM, first compound 0.316 µM
[28] = second compound 3.16 µM, first compound 1 µM
[29] = second compound 3.16 µM, first compound 3.16 µM
[30] = second compound 3.16 µM, first compound 10 µM
[31] = second compound 10 µM, first compound 0.0316 µM
[32] = second compound 10 µM, first compound 0.1 µM
[33] = second compound 10 µM, first compound 0.316 µM
[34] = second compound 10 µM, first compound 1 µM
[35] = second compound 10 µM, first compound 3.16 µM
[36] = second compound 10 µM, first compound 10 µM
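Also: spheroids exposed to agents for 7 days.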
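For viability, T/C in this document: 100% = DMSO vehicle wells.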

C#Cc1c(F)ccc2cc(O)cc(-c3ncc4c(N5CC6CCC(C5)N6)nc(OCC56CCCN5CC(F)C6)nc4c3F)c12 (centres undefined) + CN1CCN(c2cc(C(=O)Nc3cc4cc(-c5cnn(C)c5)ccc4cn3)ccn2)CC1
> 10000 nM: IC50 (second compound 0.0316 µM) | IC50 (second compound 0.1 µM)
inactive: viability, T/C [1] 93.7% | viability, T/C [2] 91.2% | viability, T/C [3] 109% | viability, T/C [4] 102% | viability, T/C [5] 106% | viability, T/C [6] 99.1% | viability, T/C [7] 101% | viability, T/C [8] 103% | viability, T/C [9] 94.7% | viability, T/C [10] 101% | viability, T/C [11] 102% | viability, T/C [12] 74.7% | viability, T/C [13] 36.2% | viability, T/C [14] 38.8% | viability, T/C [15] 30% | viability, T/C [16] 33.3% | viability, T/C [17] 24.7% | viability, T/C [18] 18.8%
< 31.6 nM: IC50 (second compound 0.316 µM) | IC50 (second compound 1 µM) | IC50 (second compound 3.16 µM) | IC50 (second compound 10 µM)
active: viability, T/C [19] 0.17% | viability, T/C [20] 0.82% | viability, T/C [21] 0.2% | viability, T/C [22] 0.18% | viability, T/C [23] 0.17% | viability, T/C [24] 0.71% | viability, T/C [25] 0.13% | viability, T/C [26] 2.81% | viability, T/C [27] 0.12% | viability, T/C [28] 0.12% | viability, T/C [29] 0.13% | viability, T/C [30] 3.3% | viability, T/C [31] 0.18% | viability, T/C [32] 1.06% | viability, T/C [33] 0.16% | viability, T/C [34] 0.18% | viability, T/C [35] 0.18% | viability, T/C [36] 2.17%

CCCS(=O)(=O)Nc1ccc(F)c(C(=O)c2c[nH]c3ncc(-c4ccc(Cl)cc4)cc23)c1F + CN1CCN(c2cc(C(=O)Nc3cc4cc(-c5cnn(C)c5)ccc4cn3)ccn2)CC1
active: viability, T/C [6] 0.01% | viability, T/C [12] 0.01% | viability, T/C [19] 0.01% | viability, T/C [20] 0.08% | viability, T/C [21] 0.17% | viability, T/C [22] 1.99% | viability, T/C [23] 0.6% | viability, T/C [24] 0.01% | viability, T/C [25] 0.01% | viability, T/C [26] 0.06% | viability, T/C [27] 0.14% | viability, T/C [28] 0.13% | viability, T/C [29] 0.08% | viability, T/C [30] 0% | viability, T/C [31] 0.03% | viability, T/C [32] 0.07% | viability, T/C [33] 0.17% | viability, T/C [34] 0.19% | viability, T/C [35] 0.25% | viability, T/C [36] 0%
1510 nM: IC50 (second compound 0.0316 µM)
1690 nM: IC50 (second compound 0.1 µM)
< 31.6 nM: IC50 (second compound 0.316 µM) | IC50 (second compound 1 µM) | IC50 (second compound 3.16 µM) | IC50 (second compound 10 µM)
inactive: viability, T/C [1] 21.5% | viability, T/C [2] 34.8% | viability, T/C [3] 99.9% | viability, T/C [4] 98.2% | viability, T/C [5] 25.5% | viability, T/C [7] 24.7% | viability, T/C [8] 36.4% | viability, T/C [9] 105% | viability, T/C [10] 105% | viability, T/C [11] 28.9% | viability, T/C [13] 10.4% | viability, T/C [14] 12.8% | viability, T/C [15] 38.1% | viability, T/C [16] 29.9% | viability, T/C [17] 21% | viability, T/C [18] 0%
